Among the data in patent publication US20170369444A1, “INHIBITORS OF HISTONE DEMETHYLASES” (Gilead Sciences, Inc., priority 2014, published 2017) are IC50 values, retold here.

Assay type in all cases: biochemical
In one assay the target is T1, KDM4C (JMJD2C) (Homo sapiens, UniProt Q9H3R0).
T1 construct: 1-349; host or cells: E. coli
T1 sequence (Q9H3R0 1-349): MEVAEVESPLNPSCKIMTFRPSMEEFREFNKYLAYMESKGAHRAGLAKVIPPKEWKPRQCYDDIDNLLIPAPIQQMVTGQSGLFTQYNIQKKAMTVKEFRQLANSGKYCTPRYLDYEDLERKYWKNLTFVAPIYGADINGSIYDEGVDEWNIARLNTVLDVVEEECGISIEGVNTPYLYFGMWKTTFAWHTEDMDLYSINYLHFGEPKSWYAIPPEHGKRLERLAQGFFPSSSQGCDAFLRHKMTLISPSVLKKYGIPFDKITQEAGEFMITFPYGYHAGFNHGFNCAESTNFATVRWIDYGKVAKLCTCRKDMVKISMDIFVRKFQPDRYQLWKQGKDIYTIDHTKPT
The experiment in a line: Histone lysine demethylase AlphaLISA assay, KDM4C. Particulars: in vitro enzyme, read-out: KDM4C IC50 (HDME Inhibition). The procedure:
Histone lysine demethylase AlphaLISA assays are performed to determine IC50 values. […] Assays are performed analogously to the protocol described by PerkinElmer (Roy et al. PerkinElmer Technical Note: AlphaLISA #12, April 2011).
Assays are performed analogously to the protocol described by PerkinElmer (Roy et al. PerkinElmer Technical Note: AlphaLISA #12, April 2011).
Enzymes (final assay concentration 0.1-2.5 nM) are dissolved in enzyme buffer and incubated for 10 min before 5 μL is added to 5 μL 3% DMSO solutions of compounds in enzyme buffer, incubated for another 10 minutes, before 5 μL substrate solution is added and the reaction mixture is incubated at room temperature. 10 μL acceptor beads, suspended Epigenetic Buffer (Perkin Elmer AL008) from stock, are added and the suspension is incubated in the dark at room temperature, before 10 μL suspension of streptavidin donor beads (Perkin Elmer 6760002) in Epigenetic Buffer is added. After incubation at room temperature in the dark the plates are read.
Substrate solution: Substrate (final assay concentration 50-200 nM), 50 mM Hepes (pH 7.4-8.0), 0.003% Tween-20, 0.1% BS, 25 μM L-Asc, 10 μM α-KG. Enzyme Buffer: 50 mM Hepes (pH 7.4-8.0), 0.003% Tween-20, 0.1% BSA; 5 μM (NH4)2Fe(SO4)2
For orientation: Alpha assays give light when donor and acceptor beads are brought close together.

The target in another assay is T2, KDM6A (UTX) (Homo sapiens, UniProt O15550).
T2 construct: 919-1401; host or cells: E. coli
Description: Histone lysine demethylase AlphaLISA assay, KDM6A. Particulars: in vitro enzyme, read-out: KDM6A IC50 (HDME Inhibition).

In another assay the target is T3, KDM5B (PLU-1) (Homo sapiens, UniProt Q9UGL1).
T3 construct: 1-809; host or cells: E. coli
T3 sequence (Q9UGL1 1-809): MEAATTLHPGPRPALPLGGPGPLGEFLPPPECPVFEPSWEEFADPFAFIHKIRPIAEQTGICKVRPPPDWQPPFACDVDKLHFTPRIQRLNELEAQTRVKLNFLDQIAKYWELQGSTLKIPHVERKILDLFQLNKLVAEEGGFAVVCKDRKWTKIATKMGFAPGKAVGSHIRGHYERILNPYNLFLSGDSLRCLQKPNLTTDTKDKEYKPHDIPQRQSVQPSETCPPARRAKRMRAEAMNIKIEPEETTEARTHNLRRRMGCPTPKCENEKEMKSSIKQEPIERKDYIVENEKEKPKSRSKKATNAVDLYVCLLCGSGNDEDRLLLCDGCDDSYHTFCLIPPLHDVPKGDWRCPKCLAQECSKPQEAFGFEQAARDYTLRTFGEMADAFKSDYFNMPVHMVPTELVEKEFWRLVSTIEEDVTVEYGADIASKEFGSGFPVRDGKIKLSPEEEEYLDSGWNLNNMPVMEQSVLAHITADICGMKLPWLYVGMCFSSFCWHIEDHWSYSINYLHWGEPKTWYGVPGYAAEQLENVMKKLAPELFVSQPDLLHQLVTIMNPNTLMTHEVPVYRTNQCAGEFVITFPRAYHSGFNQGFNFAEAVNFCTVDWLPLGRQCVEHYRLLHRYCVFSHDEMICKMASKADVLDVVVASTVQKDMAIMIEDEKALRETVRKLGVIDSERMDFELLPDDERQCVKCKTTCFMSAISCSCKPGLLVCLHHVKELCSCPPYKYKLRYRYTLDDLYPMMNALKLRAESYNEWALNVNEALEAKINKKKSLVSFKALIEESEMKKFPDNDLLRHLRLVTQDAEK
The experiment in a line: Histone lysine demethylase AlphaLISA assay, KDM5B. The conditions noted are these: in vitro enzyme, read-out: KDM5B IC50 (HDME Inhibition).

The next assay concerns the target PHF8 (KDM7) (Homo sapiens, UniProt Q9UPP1). The experiment in a line: Histone lysine demethylase AlphaLISA assay, PHF8. The conditions noted are these: in vitro enzyme, read-out: PHF8 IC50 (HDME Inhibition).

Bounds are passed on as bounds.

T2 sequence (O15550 919-1401): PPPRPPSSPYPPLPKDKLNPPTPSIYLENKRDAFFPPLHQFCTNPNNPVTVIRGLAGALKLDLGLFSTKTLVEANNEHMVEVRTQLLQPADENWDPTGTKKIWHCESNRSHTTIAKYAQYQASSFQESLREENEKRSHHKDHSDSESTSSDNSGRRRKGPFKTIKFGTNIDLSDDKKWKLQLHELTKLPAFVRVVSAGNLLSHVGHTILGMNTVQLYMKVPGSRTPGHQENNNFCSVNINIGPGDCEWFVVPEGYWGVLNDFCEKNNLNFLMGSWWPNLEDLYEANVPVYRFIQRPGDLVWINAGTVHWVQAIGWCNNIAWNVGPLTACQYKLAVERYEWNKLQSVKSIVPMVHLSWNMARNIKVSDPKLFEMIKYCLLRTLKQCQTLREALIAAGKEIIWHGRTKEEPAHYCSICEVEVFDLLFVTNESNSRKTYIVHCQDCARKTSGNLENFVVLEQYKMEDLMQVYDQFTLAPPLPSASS
Sequence of PHF8 (KDM7) (Q9UPP1 whole entry): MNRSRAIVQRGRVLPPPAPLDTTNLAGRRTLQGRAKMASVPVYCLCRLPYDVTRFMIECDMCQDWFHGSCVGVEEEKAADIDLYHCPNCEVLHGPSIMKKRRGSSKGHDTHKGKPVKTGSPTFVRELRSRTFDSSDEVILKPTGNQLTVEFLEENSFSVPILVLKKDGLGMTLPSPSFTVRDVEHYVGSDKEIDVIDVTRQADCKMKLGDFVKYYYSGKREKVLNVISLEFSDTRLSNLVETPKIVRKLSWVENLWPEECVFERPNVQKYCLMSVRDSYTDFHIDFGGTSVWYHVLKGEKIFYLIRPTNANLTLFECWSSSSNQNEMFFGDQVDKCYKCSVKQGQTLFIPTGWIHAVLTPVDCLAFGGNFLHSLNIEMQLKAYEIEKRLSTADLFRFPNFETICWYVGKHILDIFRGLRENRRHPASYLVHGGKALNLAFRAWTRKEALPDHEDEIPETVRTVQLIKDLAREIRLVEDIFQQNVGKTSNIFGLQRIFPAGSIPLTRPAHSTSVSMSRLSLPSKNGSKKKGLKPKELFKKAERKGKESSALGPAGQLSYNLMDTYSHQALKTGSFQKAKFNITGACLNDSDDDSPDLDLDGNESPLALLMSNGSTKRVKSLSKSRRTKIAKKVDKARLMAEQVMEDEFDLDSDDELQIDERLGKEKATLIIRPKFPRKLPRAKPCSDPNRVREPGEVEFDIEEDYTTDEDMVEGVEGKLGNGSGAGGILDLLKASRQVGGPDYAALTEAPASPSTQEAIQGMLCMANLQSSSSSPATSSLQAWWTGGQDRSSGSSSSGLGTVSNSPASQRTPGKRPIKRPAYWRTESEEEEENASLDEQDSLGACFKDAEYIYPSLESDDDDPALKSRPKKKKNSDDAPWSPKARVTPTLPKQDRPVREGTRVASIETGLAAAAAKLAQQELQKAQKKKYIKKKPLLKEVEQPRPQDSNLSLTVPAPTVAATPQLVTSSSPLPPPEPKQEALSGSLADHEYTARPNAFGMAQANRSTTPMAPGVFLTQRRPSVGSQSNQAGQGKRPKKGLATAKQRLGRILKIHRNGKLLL

For the compound `C=CCN(CC=C)C(=O)[C@H](CCCCN(C)C(C)=O)NCc1cc(C(=O)O)ccn1` [Compound 21, 2-({[(1S)-1-[bis(prop-2-en-1-yl)carbamoyl]-5-(N-methylacetamido)pentyl]amino}methyl)pyri-dine-4-carboxylic acid], the figures for the IC50 at KDM4C (JMJD2C), on KDM6A (UTX) and at KDM5B (PLU-1) were above 2500 nM, above 2500 nM and 250 to 2500 nM, respectively.
As for `O=C(O)c1ccnc(CNCc2nccn2C/C=C/c2ccccc2)c1` [Compound 13, 2-{[({1-[(2E)-3-phenylprop-2-en-1-yl]-1H-imidazol-2-yl}methyl)amino]methyl}pyridine-4-carboxylic acid], the IC50 on KDM4C (JMJD2C) is above 2500 nM; at KDM6A (UTX), above 2500 nM; at KDM5B (PLU-1), below 250 nM.
With `CC(N[C@@H](C)C(=O)NCc1ccc([N+](=O)[O-])cc1)c1cc(C(=O)O)ccn1` (stereo partly drawn) [Compound 5, 2-(1-{[(1S)-1-{[(4-nitrophenyl)methyl]carbamoyl}ethyl]amino}ethyl)pyridine-4-carboxylic acid], the half-inhibitory concentration (IC50) on KDM4C (JMJD2C), on KDM5B (PLU-1) and at PHF8 (KDM7) was above 2500 nM in each case.
As for `CSCC(NCC(=O)N1CCCCC1)c1cc(C(=O)O)ccn1` (centres unmarked) [Compound 42, 2-[2-(methylsulfanyl)-1-{[2-oxo-2-(piperidin-1-yl)ethyl]amino}ethyl] pyridine-4-carboxylic acid], the half-maximal inhibitory concentration (IC50) on KDM4C (JMJD2C), on KDM6A (UTX) and on KDM5B (PLU-1) was above 2500 nM in each case.
In the case of `O=C(O)c1ccnc(CNC2CCCn3ccnc32)c1` (centres unmarked) [Compound 90, 2-[({5H,6H,7H,8H-imidazo[1,2-a]pyridin-8-yl}amino)methyl]pyri-dine-4-carboxylic acid], the IC50 on KDM4C (JMJD2C) was 250 to 2500 nM; at KDM5B (PLU-1), below 250 nM; at PHF8 (KDM7), below 250 nM.
Regarding `O=C(O)c1ccnc(CN2CCCCn3ccnc3C2)c1` [Compound 51, 2-{5H,6H,7H,8H,9H,10H-imidazo[1,2-a][1,4]diazocin-9-ylmethyl}pyridine-4-carboxylic acid], the results for the IC50 on KDM4C (JMJD2C), on KDM6A (UTX) and at PHF8 (KDM7) were below 250 nM, above 2500 nM and 250 to 2500 nM, respectively.
Turning to `CC(C)C[C@H](CO)NC(C)c1cc(C(=O)O)ccn1` (stereo partly drawn) [Compound 33, 2-(1-{[(2R)-1-hydroxy-4-methylpentan-2-yl]amino}ethyl)pyridine-4-carboxylic acid], the figures for the IC50 on KDM4C (JMJD2C), at KDM6A (UTX) and at KDM5B (PLU-1) were above 2500 nM, above 2500 nM and 250 to 2500 nM, respectively.
Take `O=C(O)c1ccnc(CNC2CCn3ccnc32)c1` (centres unmarked) [Compound 93, 2-[({5H,6H,7H-pyrrolo[1,2-a]imidazol-7-yl}amino)methyl]pyri-dine-4-carboxylic acid]: the half-maximal inhibitory concentration (IC50) on KDM4C (JMJD2C) is 250 to 2500 nM; at KDM6A (UTX), above 2500 nM; at KDM5B (PLU-1), below 250 nM.
On to `O=C(O)c1ccnc(CN2CCCC[C@@H]2CC(=O)N2CCCCC2)c1` [Compound 72, 2-{[(2R)-2-[2-oxo-2-(piperidin-1-yl)ethyl]piperidin-1-yl]methyl}pyridine-4-carboxylic acid], for which the IC50 on KDM4C (JMJD2C), on KDM6A (UTX) and on KDM5B (PLU-1) was above 2500 nM in each case.
On to `COc1ccc([C@@H](C)N2CC[C@H](CNCc3cc(C(=O)O)ccn3)C2=O)cc1` [Compound 79, 2-[({[(3R)-1-[(1R)-1-(4-methoxyphenyl)ethyl]-2-oxopyrrolidin-3-yl]methyl}amino)methyl]pyridine-4-carboxylic acid], for which the IC50 is below 250 nM on KDM4C (JMJD2C), 250 to 2500 nM at KDM6A (UTX) and below 250 nM at KDM5B (PLU-1).
Regarding `O=C(O)c1ccnc(CN2CCC(c3ccc(F)cc3)n3ccnc3C2)c1` (centres unmarked) [Compound 50, 2-{[5-(4-fluorophenyl)-5H,6H,7H,8H,9H-imidazo[1,2-a][1,4]diazepin-8-yl]methyl}pyridine-4-carboxylic acid], the half-maximal inhibitory concentration (IC50) on KDM4C (JMJD2C) was above 2500 nM; on KDM5B (PLU-1) it was 250 to 2500 nM; on PHF8 (KDM7) it was above 2500 nM.
As to `C[C@H](c1ccccc1)N1CC[C@H](CNCc2cc(C(=O)O)ccn2)C1=O` [Compound 82, 2-[({[(3R)-2-oxo-1-[(1R)-1-phenylethyl]pyrrolidin-3-yl]methyl}amino)methyl]pyridine-4-carboxylic acid], the figures for the IC50 at KDM4C (JMJD2C), on KDM6A (UTX) and on KDM5B (PLU-1) were below 250 nM, 250 to 2500 nM and below 250 nM, respectively.
Consider `CC(N[C@@H](C)C(=O)NCc1cccc(C(=O)O)c1)c1cc(C(=O)O)ccn1` (stereo partly drawn) [Compound 1, 2-(1-{[(1S)-1-{[(3-carboxyphenyl)methyl]carbamoyl}ethyl]amino}ethyl)pyridine-4-carboxylic acid], for which the 50% inhibitory concentration (IC50) at KDM4C (JMJD2C) and on KDM6A (UTX) was above 2500 nM throughout.
For the compound `Cc1cn2c(n1)CCN(Cc1cc(C(=O)O)ccn1)CCC2` [Compound 67, 2-({2-methyl-5H,6H,7H,8H,9H,10H-imidazo[1,2-a][1,5]diazocin-8-yl}methyl)pyridine-4-carboxylic acid], the half-inhibitory concentration (IC50) on KDM4C (JMJD2C), at KDM6A (UTX) and at KDM5B (PLU-1) was above 2500 nM throughout.
Turning to `O=C(O)c1cnnc(CNCC(=O)N2CCCCC2)c1` [Compound 26, 6-({[2-oxo-2-(piperidin-1-yl)ethyl]amino}methyl) pyridazine-4-carboxylic acid], the results for the half-maximal inhibitory concentration (IC50) on KDM4C (JMJD2C), at KDM6A (UTX) and on KDM5B (PLU-1) were below 250 nM, above 2500 nM and below 250 nM, respectively.
Regarding `CCNC(=O)C1CN(Cc2cc(C(=O)O)ccn2)C1` [Compound 68, 2-{[3-(ethylcarbamoyl)azetidin-1-yl]methyl}pyridine-4-carboxylic acid], the half-maximal inhibitory concentration (IC50) is 250 to 2500 nM on KDM4C (JMJD2C), 250 to 2500 nM on KDM5B (PLU-1) and below 250 nM on PHF8 (KDM7).
Consider `O=C(O)c1ccnc(CNC2CCCc3cccnc32)c1` (centres unmarked) [Compound 94, 2-{[(5,6,7,8-tetrahydroquinolin-8-yl)amino]methyl} pyridine-4-carboxylic acid], for which the half-maximal inhibitory concentration (IC50) at KDM4C (JMJD2C), at KDM6A (UTX) and at KDM5B (PLU-1) was above 2500 nM each time.
On to `CCNC(=O)C[C@@H]1CCCCN1Cc1cc(C(=O)O)ccn1` [Compound 71, 2-{[(2S)-2-[(ethylcarbamoyl)methyl]piperidin-1-yl]methyl}pyridine-4-carboxylic acid], for which the IC50 at KDM4C (JMJD2C), on KDM6A (UTX) and at KDM5B (PLU-1) was above 2500 nM each time.
As to `C=Cc1ccnc2c1CCC2NCc1cc(C(=O)O)ccn1` (centres unmarked) [Compound 100, 2-[({4-ethenyl-5H,6H,7H-cyclopenta[b]pyridin-7-yl}amino)methyl]pyri-dine-4-carboxylic acid], the half-inhibitory concentration (IC50) is 250 to 2500 nM on KDM4C (JMJD2C), below 250 nM at KDM5B (PLU-1) and below 250 nM on PHF8 (KDM7).
Take `O=C(O)c1ccnc(CN2CCCn3ccnc3C2)c1` [Compound 53, 2-{5H,6H,7H,8H,9H-imidazo[1,2-a][1,4]diazepin-8-ylmethyl}pyridine-4-carboxylic acid]: the IC50 on KDM4C (JMJD2C) is 250 to 2500 nM; on KDM6A (UTX) it was above 2500 nM; at PHF8 (KDM7) it was above 2500 nM.
Regarding `CC(N[C@@H](C)C(=O)NCc1ccncc1)c1cc(C(=O)O)ccn1` (stereo partly drawn) [Compound 15, 2-(1-{[(1S)-1-[(pyridin-4-ylmethyl)carbamoyl]ethyl]amino}ethyl)pyri-dine-4-carboxylic acid], the IC50 on KDM4C (JMJD2C), at KDM6A (UTX) and at KDM5B (PLU-1) was above 2500 nM throughout.

The term IC50 denotes the concentration needed to halve the response being measured.
